Laboratory results reported in US20230391684A1, “NITROGEN FERTILIZER COMPOSITIONS BASED ON POLYPHOSPHATE CAGED STRUCTURE” (priority 2020, published 2023).

Experiments:
[1] = Description: The fertilizer composition will contain urea with reduced water solubility. […] Preferably no more than 30 to 60 wt. % of the urea is soluble. More preferably no more than 30 to 50 wt. % of urea is soluble.
XRD was of the granulated product which was powdered for recording of XRD.

[2] = Water leaching assay (2 g, 10 mL water, 8 min): water-soluble and water-insoluble nitrogen/urea; assay type: physicochemical; conditions: 2 g leached with 10 mL water in 8 min, dried residue
Protocol: Determination of water-insoluble nitrogen: 2 g of the product in powder form, is weighed into a filter paper (Whatman 1) placed in a funnel. It is leached with 10 mL water added dropwise from a burette within a period of 8 min. The wet residue is placed together with the filter paper, in a petridish and dried at 50° C. After drying, the residue is ground and used for analysis of nitrogen.
Determination of water-soluble nitrogen: 2 g of the product in powder form, is weighed into a filter paper (Whatman 1) placed in a funnel. It is leached with 10 mL water added dropwise from a burette within a period of 8 min. The filtrate is placed together with the filter paper, in a petridish and dried at 50° C. After drying, the dried mass is weighed. It is analyzed for N as described above.

## NC(N)=O [urea]
[1]
  total N from fertilizer soluble in water: 100 wt. %
[2]
  urea content of residue after leaching with water: no urea was detectable
